Here are results for 39 molecules from article PMC12142043, “Cell-based high-content approach for SARS-CoV-2 neutralization identifies unique monoclonal antibodies and PI3K pathway inhibitors” (Frontiers in Cell and Developmental Biology, 2025).

Like-named read-outs stand apart in the source and are kept apart here.

The test relates to SARS-CoV-2 (USA-WA1/2020) in Calu-3 cells. In kind it is cell-based.
Setting [1] is: high dose (10 µM), Calu-3, 48 h.
[2] abbreviates: low dose (100 nM), Calu-3, 48 h.

Turning to `O=c1sn(-c2cccc3ccccc23)c(=O)n1Cc1ccccc1` [Tideglusib], the “dsRNA signal, AU High” value under setting [1] is listed as 352.7 AU. Moreover, the “dsRNA signal, AU Low” value under setting [2] amounted to 1603.7 AU.

For `COc1ccc2cc(-c3nc(-c4ccc([S+](C)[O-])cc4)[nH]c3-c3ccncc3)ccc2c1` (stereo not drawn) [Tie2 kinase inhibitor], the “dsRNA signal, AU High” value under setting [1] worked out at 4787.9 AU. Besides, the “dsRNA signal, AU Low” value under setting [2] came out at 16594.7 AU.

As to `COc1cc2nccc(Oc3ccc(NC(=O)Nc4cc(C)on4)c(Cl)c3)c2cc1OC` [Tivozanib (AV-951)], the “dsRNA signal, AU High” value under setting [1] was 40142.9 AU. In addition, under setting [2], the “dsRNA signal, AU Low” value was 36133.0 AU.

As to `C[C@@H]1CCN(C(=O)CC#N)C[C@@H]1N(C)c1ncnc2[nH]ccc12.O=C(O)CC(O)(CC(=O)O)C(=O)O` [Tofacitinib (CP-690550) Citrate], under setting [1], the “dsRNA signal, AU High” value is listed as 57107.2 AU. The “dsRNA signal, AU Low” value under setting [2] is 61115.5 AU.

As to `C[C@@H]1CCN(C(=O)CC#N)C[C@@H]1N(C)c1ncnc2[nH]ccc12` [Tofacitinib (CP-690550,Tasocitinib)], under setting [1], the “dsRNA signal, AU High” value is reported as 6571.2 AU. Further, the “dsRNA signal, AU Low” value under setting [2] turned out to be 4801.5 AU.

`CCC(=O)N1CCN(c2ccc(-n3c(=O)ccc4cnc5ccc(-c6cnc7ccccc7c6)cc5c43)cc2C(F)(F)F)CC1` [Torin 1]: the “dsRNA signal, AU High” value under setting [1] was found to be 1083.7 AU. The “dsRNA signal, AU Low” value under setting [2] was 14896.3 AU.

`CC(=O)Nc1cccc(-n2c(=O)n(C3CC3)c(=O)c3c(Nc4ccc(I)cc4F)n(C)c(=O)c(C)c32)c1.C[S+](C)[O-]` [Trametinib DMSO solvate]: the “dsRNA signal, AU High” value turned out to be 10918.5 and the “dsRNA signal, AU Low” value was 24279.8.

On to `NC(=S)N/N=C/c1ncccc1N` [Triapine], for which the “dsRNA signal, AU High” value under setting [1] is reported as 0.0 AU. The “dsRNA signal, AU Low” value under setting [2] stood at 17637.1 AU.

For `CC(C)(C)c1cc(C=C(C#N)C#N)cc(C(C)(C)C)c1O` [Tyrphostin 9], the “dsRNA signal, AU High” value under setting [1] is recorded as 58.0 AU. In addition, the “dsRNA signal, AU Low” value under setting [2] is 17328.1 AU.

Turning to `CC(C)(C)c1cc(/C=C(\C#N)C(N)=S)cc(C(C)(C)C)c1O` [Tyrphostin AG 879], the “dsRNA signal, AU High” value under setting [1] was 54.0 AU. For the same molecule, the “dsRNA signal, AU Low” value under setting [2] stood at 6760.3 AU.

Regarding `COc1cc2ncc(-c3ccccc3)nc2cc1OC` [Tyrphostin AG 1296], the “dsRNA signal, AU High” value under setting [1] is listed as 2647.7 AU. The “dsRNA signal, AU Low” value under setting [2] is 18881.3 AU.

For the molecule `CCCCNc1ncc2c(-c3ccc(CN4CCN(C)CC4)cc3)cn([C@H]3CC[C@H](O)CC3)c2n1` [UNC2025], under setting [1], the “dsRNA signal, AU High” value stood at 55553.7 AU. Further, the “dsRNA signal, AU Low” value under setting [2] is 67297.4 AU.

In the case of `CCCCNc1ncc(C(=O)NCc2ccc(-n3ccnc3)cc2)c(NC2CCC(O)CC2)n1` (stereo not drawn) [UNC2881], under setting [1], the “dsRNA signal, AU High” value was determined as 446.4 AU. Moreover, under setting [2], the “dsRNA signal, AU Low” value was determined as 42094.2 AU.

`CN1CCN(Cc2ccc(-c3cnc4[nH]cc(-c5ccc6[nH]ccc6c5)c4c3)cc2)CC1` [URMC-099]: the “dsRNA signal, AU High” value under setting [1] was 20784.2 AU. Besides, under setting [2], the “dsRNA signal, AU Low” value is 7905.7 AU.

Regarding `O.O.O.O=C(O)c1ncccc1O.O=C(O)c1ncccc1O.[O]=[V]` [VO-Ohpic trihydrate], the “dsRNA signal, AU High” value under setting [1] is recorded as 28838.2 AU. The “dsRNA signal, AU Low” value under setting [2] is listed as 7631.3 AU.

`c1cncc(CN2CCC(n3ncc4c(N5CCOCC5)nc(-c5ccc6[nH]ccc6c5)nc43)CC2)c1` [WAY-600]: the “dsRNA signal, AU High” value under setting [1] stood at 1003.4 AU. Moreover, the “dsRNA signal, AU Low” value under setting [2] turned out to be 67106.4 AU.

As to `COc1cc2ncnc(Nc3ccc(O)c(Br)c3)c2cc1OC` [WHI-P154], the “dsRNA signal, AU High” value under setting [1] is 5163.1 AU. Also, the “dsRNA signal, AU Low” value under setting [2] worked out at 0.0 AU.

Turning to `CNC(=O)Nc1ccc(-c2nc(N3CC4CCC(C3)O4)c3cnn(C4CCC5(CC4)OCCO5)c3n2)cc1` [WYE-125132 (WYE-132)], the “dsRNA signal, AU High” value under setting [1] was 4894.7 AU. Also, the “dsRNA signal, AU Low” value under setting [2] worked out at 21738.1 AU.

Consider `C=CC(=O)Nc1cccc(Oc2nc(Nc3ccc(N4CCN(C)CC4)cc3)ncc2Cl)c1` [WZ3146], for which the “dsRNA signal, AU High” value under setting [1] is 23148.6 AU. The “dsRNA signal, AU Low” value under setting [2] is 16337.5 AU.

Turning to `CCC(=O)Nc1cccc(Oc2nc(Nc3ccc(N4CCN(C)CC4)cc3OC)ncc2Cl)c1` [WZ4003], under setting [1], the “dsRNA signal, AU High” value came out at 30589.4 AU. Further, the “dsRNA signal, AU Low” value under setting [2] amounted to 38446.0 AU.

On to `COc1cc(O)c2c(c1)oc(=O)c1c3cc(O)c(O)cc3oc21` [Wedelolactone], for which the “dsRNA signal, AU High” value under setting [1] stood at 9001.4 AU. The “dsRNA signal, AU Low” value under setting [2] is listed as 16105.5 AU.

As to `COc1ccc(Cl)c(Nc2nc3ccccc3nc2NS(=O)(=O)c2cccc(NC(=O)C(C)(C)N)c2)c1` [XL147], the “dsRNA signal, AU High” value under setting [1] was determined as 6847.8 AU. Further, the “dsRNA signal, AU Low” value under setting [2] is 47539.1 AU.

`Cc1c(C(=O)N2CCOc3ccc(-c4ccc(N)nc4)cc3C2)ccc(S(C)(=O)=O)c1F` [XL388]: the “dsRNA signal, AU High” value under setting [1] turned out to be 5203.5 AU. For the same molecule, the “dsRNA signal, AU Low” value under setting [2] is given as 16443.4 AU.

As for `CCOc1cc(N2CCC(O)CC2)ccc1Nc1ncc2c(n1)N(C)c1ccccc1C(=O)N2C` [XMD8-92], the “dsRNA signal, AU High” value under setting [1] stood at 359.5 AU. Besides, the “dsRNA signal, AU Low” value under setting [2] turned out to be 30524.1 AU.

As for `C[C@@H](N)[C@H]1CC[C@H](C(=O)Nc2ccncc2)CC1` [Y-27632], the “dsRNA signal, AU High” value under setting [1] is given as 3508.5 AU. Moreover, the “dsRNA signal, AU Low” value under setting [2] turned out to be 46665.7 AU.

Take `Cc1cc(C)nc(NS(=O)(=O)c2ccc(NC(=S)NC(=O)COc3ccc(Br)cc3Cl)cc2)n1` [ZCL278]: under setting [1], the “dsRNA signal, AU High” value is 9541.3 AU. Also, the “dsRNA signal, AU Low” value under setting [2] was 41590.0 AU.

`CC(C)N(CCC(=O)c1ccc2ccccc2c1)Cc1ccccc1.Cl` [ZM 39923 HCl]: the “dsRNA signal, AU High” value under setting [1] was determined as 21395.1 AU. Also, the “dsRNA signal, AU Low” value under setting [2] is 2858.2 AU.

Turning to `FC(F)c1nc2ccccc2n1-c1nc(N2CCOCC2)nc(N2CCOCC2)n1` [ZSTK474], the “dsRNA signal, AU High” value under setting [1] turned out to be 6069.9 AU. Also, the “dsRNA signal, AU Low” value under setting [2] worked out at 23073.5 AU.

As for `CO[C@H]1C[C@@H]2CC[C@@H](C)[C@@](O)(O2)C(=O)C(=O)N2CCCC[C@H]2C(=O)O[C@H]([C@H](C)C[C@@H]2CC[C@H](n3cnnn3)[C@H](OC)C2)CC(=O)[C@H](C)/C=C(\C)[C@@H](O)[C@@H](OC)C(=O)[C@H](C)C[C@H](C)/C=C/C=C/C=C/1C` [Zotarolimus(ABT-578)], under setting [1], the “dsRNA signal, AU High” value came to 11435.6 AU. For the same molecule, the “dsRNA signal, AU Low” value under setting [2] came to 1864.8 AU.

On to AG-18, for which the “dsRNA signal, AU High” value under setting [1] was determined as 29672.3 AU. For the same molecule, the “dsRNA signal, AU Low” value under setting [2] amounted to 14434.9 AU.

AZD4547: the “dsRNA signal, AU High” value under setting [1] is 14827.8 AU. Further, the “dsRNA signal, AU Low” value under setting [2] is recorded as 3634.0 AU.

As for Anacardic acid, under setting [1], the “dsRNA signal, AU High” value worked out at 12779.5 AU. Further, under setting [2], the “dsRNA signal, AU Low” value amounted to 44703.4 AU.

In the case of CHIR-98014, the “dsRNA signal, AU High” value is reported as 63043.9 and the “dsRNA signal, AU Low” value was 37241.6.

Consider Ginkgolide C, for which the “dsRNA signal, AU High” value under setting [1] was determined as 4330.9 AU. The “dsRNA signal, AU Low” value under setting [2] is 14963.6 AU.

Consider HG-10-102-01, for which, under setting [1], the “dsRNA signal, AU High” value is 14367.4 AU. Under setting [2], the “dsRNA signal, AU Low” value came to 32713.5 AU.

Take IC-87114: the “dsRNA signal, AU High” value under setting [1] turned out to be 0.0 AU. Further, the “dsRNA signal, AU Low” value under setting [2] was found to be 60540.6 AU.

As to KN-92, the “dsRNA signal, AU High” value under setting [1] turned out to be 8269.0 AU. The “dsRNA signal, AU Low” value under setting [2] was found to be 30018.5 AU.

Take KN-93: the “dsRNA signal, AU High” value under setting [1] was 14156.8 AU. The “dsRNA signal, AU Low” value under setting [2] is 6603.8 AU.

Turning to SC 79, under setting [1], the “dsRNA signal, AU High” value is on record as 17618.8 AU. Also, the “dsRNA signal, AU Low” value under setting [2] came out at 5138.7 AU.
